# Test results taken from EPA's ToxValDB 9.5 (doi:10.2903/j.efsa.2015.4302).
# How the values were obtained:
# Anabaena flosaquae = conditions: acute; duration: 72 hours
# Anas platyrhynchos = conditions: reproductive
# Apis mellifera = conditions: acute, mortality
# Colinus virginianus = conditions: for LC50 / LD50: acute, oral, mortality; for LC50: diet
# Danio rerio = conditions: short-term; duration: 168 hours; growth
# Daphnia magna = conditions: chronic/long-term; duration: 21 days; reproduction
# Oncorhynchus mykiss = conditions: chronic/long-term; duration: 85 days; growth
# Oryctolagus sp. = conditions: repeat dose other; mortality
# Pimephales promelas = conditions: chronic/long-term; duration: 255 days; growth
# Skeletonema costatum = conditions: acute; duration: 72 hours; growth
# Tagia sp. = conditions: acute; duration: 14 days; mortality
Structure (SMILES),NOEC (Anabaena flosaquae) [mg/L],NOEL (Anas platyrhynchos) [mg/kg-day],LD50 (Apis mellifera; dermal) [µg/piece],"LD50 (Apis mellifera; oral, unspecified) [µg/piece]",LC50 (Colinus virginianus) [mg/kg-day],LD50 (Colinus virginianus) [mg/kg-day],NOEL (Colinus virginianus; reproduction developmental) [mg/kg-day],NOEC (Danio rerio) [mg/L],NOEC (Daphnia magna) [mg/L],NOEC (Oncorhynchus mykiss) [mg/L],NOAEL (Oryctolagus sp.) [mg/kg-day],NOEC (Pimephales promelas) [mg/L],"LD50 (Rattus norvegicus; acute, mortality) [mg/kg-day]",NOAEL (Rattus norvegicus; chronic) [mg/kg-day],NOEC (Skeletonema costatum) [mg/L],LC50 (Tagia sp.) [mg/kg]
O=C(O)CNCP(=O)(O)O [Glyphosate],12,125,> 100,100,> 5200,4330,96.3,1,12.5,9.6,50,25.7,> 2000,197,1.82,5600
NCP(=O)(O)O [Aminomethylphosphonic acid],–,–,–,–,> 5620,> 2250,–,–,–,–,–,–,–,–,–,–
